The values below are quoted from earlier work in US20090148502A1, “COMPOSITIONS AND METHODS FOR TREATING LACERATIONS, ABRASIONS, AVULSIONS, BURNS, ULCERS, AND CASES OF EXCESSIVE BLEEDING” (Hemo Nanoscience, LLC, priority 2006, published 2009).

For series [1] the following is noted: in vivo.
For a further series, the system named is wound. The note with it: 0.04% (wt/wt), topically applied.

Regarding `CCCCN1CCCCC1C(=O)Nc1c(C)cccc1C` (centres unmarked) [bupivacaine], the duration of action in series [1] was 6 to 8 h.
“Human EGF: human epidermal growth factor”: the “effect on healing time” value in the series on wound is on record as “successful in reducing the healing time”.
